The test system of this test is acid secretion. The experiment in a line: Animal study, PPI + cholinergic stimulation: gastric acid output by titration of 30-min gastric collections in fasted, anesthetized, pylorus-ligated rats. It is filed as in vivo. The procedure:
Rats are fasted overnight.
Rats are anesthetized and small laparotomy and gastrotomy are performed.
Tygon tubing placed through gastrotomy and into proximal duodenum; pylorus ligated
Tubing is placed through a small gastrotomy into the most dependent portion of the stomach; esophagogastric junction is ligated carefully to avoid vagal damage and to prevent aspiration
Gastrotomy and abdomen is closed around tubing
Stomach is gently rinsed with about 0.9% NaCl at about pH 7.
Gastric contents are collected by gravity for about 30 min, at which time is rinsed with about 5 ml of NaCl and collected; 30-min contents is titrated with about […] using radiometer automatic titrator to determine basal acid output (“BAO”)
Rats (3 per group) are randomized to 1 of 3 treatments: • A. Control—intraduodenal (ID) HCO3; • B. Carbachol about 15 μg/kg IP+ID HCO3; and • C. ID omeprazole (about 20 mg/kg) is dissolved in HCO3+carbachol about 15 μg/kg IP
Gastric contents are collected by gravity for about 30 min, at which time stomachs are rinsed with about 5 ml of NaCl and collected; contents are titrated with 0.01 M NaOH using a Radiometer pH meter; about 30-min collection is repeated ×6.

Molecules are shown by their SMILES.

Consider `C[N+](C)(C)CCOC(N)=O` [carbachol], for which the “effect on acid secretion” value (carbachol about 15 μg/kg IP + ID HCO3, 3 per group) is “rapidly stimulates acid secretion”. Further, the “time at which acid secretion reaches a maximum level following administration” value (carbachol about 15 μg/kg IP + ID HCO3, gradually diminishes thereafter) is given as “about 90 min”.

The values above are taken from US20080214619A1, “Business method to treat and/or prevent a gastric acid disorder with a proton pump inhibitor (PPI) and a cholinergic agonist to induce rapid onset of PPI action with or without food” (priority 2006, published 2008).
